This is an account of results in patent US12607637B2, “Super-resolution morphology-correlated detection of labile zinc” (University of Cincinnati, priority 2020, dated 2026).

Where “and” joins values, the source holds several entries; their conditions need not be identical. Equal values may be shown once.

Data set [1] has as its system HeLa cells. The data set can be described thus: Photostability in cells under continuous laser stimulation. In kind it is cell-based. Here is the method:
At the same time, because NapBu-BPEA's optical stability is an important factor in super-resolution imaging, a long-term continuous laser (300 s) stimulation of cells was carried out, capturing images every 20 s in order to monitor the photostability of NapBu-BPEA and MTDR in cells (FIG. 4(f), (g)). […] These characteristics enabled NapBu-BPEA to dynamically monitor cellular ultrastructures with long-term super-resolution imaging.

Another data set concerns ATG13 KO HeLa cells. The data set can be described thus: SIM imaging of labile Zn^2+ after CCCP in autophagy-deficient cells. In kind it is cell-based. Here is the method:
(§1) Wild-type, FIP200 and ATG13 KO HeLa cell lines were gifted from Dr. Jun-Lin Guan's lab (University of Cincinnati). Cells were cultured in DMEM supplemented 10% FBS and 100 U/mL penicillin-streptomycin (Gibco) in 5% CO2 incubator at 37° C.
(§2) Considering that ATG13 and FIP200 are essential proteins for autophagy, to further elucidate the relationship between autophagy and changes in level of Zn^2+ two stable knockout (KO) cell lines were obtained (ATG13 KO HeLa cells and FIP200 KO HeLa cells) via CRISPR/Cas9 gene editing technology.

In another data set the test system is FIP200 KO HeLa cells. The description is as above. In kind it is cell-based. As to the method:
as §1, §2

Data set [2] can be described thus: Zn^2+ fluorescence titration, Job's plot, detection limit, binding constant, metal ion selectivity and TPEN reversibility in HEPES/DMSO. Here is the method: (§3) The stock solution of NapBu-BPEA was prepared with DMSO of HPLC pure grade to make the concentration as 10 mM, and frozen after packing at −20° C. The sample solutions were diluted to the final concentration as 10 μM with 3 mL HEPES buffer (50 mM, 100 mM KNO3, 10% DMSO, pH 7.2) in quartz cuvettes with 1 cm path lengths. The fluorescent spectra were recorded upon the excitation of 450 nm.
(§4) The Zn^2+ titration spectra were recorded by adding in aliquots Zn^2+ solution from 0 to 15 μM into the NapBu-BPEA solution (10 μM). The detection limit of NapBu-BPEA was determined by collecting the fluorescence spectra of NapBu-BPEA for 6 times to obtain the background noise (a). The probe's fluorescent sensing selectivity of NapBu-BPEA was recorded after adding metal cation (1000 eq K^+, Na^+, Ca^2+, Mg^2+; 1 eq Cd^2+, Ni^2+, Cr^3+, Pb^2+, Al^3+, Co^2+, Fe^2+, Fe^3+, Ba^2+, Mn^2+) to the NapBu-BPEA solution. The fluorescence quantum yields were determined by using Ru(bpy)3^2+ (Φ=0.04) in DMSO/HEPES (v:v, 1:9)(λex=450 nm) as the reference. To determine binding constant, various amounts of Zn(NO3)2 (0˜9 mM) were added to NapBu-BPEA solution buffered with DMSO/HEPES (50 mM, pH 7.21, 100 mM KNO3) containing 10 mM EGTA. The pH stability was measured by recording the fluorescence spectra of NapBu-BPEA solution in the presence of Zn^2+ at different pH adjusted with KOH and HCl.

In data set [3] the test system is HeLa cells. The data set can be described thus: Cell viability determination via WST (LDH release) assay. Format: cell-based. Particulars: 20 μM, 24 h. Here is the method:
The suspension of HeLa cells diluted with 50 μL DMEM was plated into 96-well plate. The inoculated cells were pre-cultured overnight in 96-well plate and replaced with a new 50 μL DMEM. 50 μL DMEM containing different concentrations of NapBu-BPEA was added and cultured in CO2 incubator at 37° C. for 24 h. After 10 μL lysis buffer was added to the high contrast wells, 30 min was cultured in the CO2 incubator at 37° C. After 100 μL working solution was added to each well, it was cultured for 0.5 h under dark and room temperature. After 50 μL stop solution was added to each well, the absorbance of 490 nm was determined immediately by a microplate reader (Thermomax, Molecular Devices).

In data set [4] the test system is HeLa cells. The data set can be described thus: SIM imaging of intracellular labile Zn^2+ on ZnPT loading and TPEN scavenging. Format: cell-based. Here is the method: In view of these promising results, a 1:2 mixture of ZnCl2 and pyrithione sodium salt, a cell-permeable Zn^2+ carrier (ZnPT) to transport exogenous Zn^2+ to cells, and a cell-permeable Zn^2+-chelating agent, TPEN, were used to evaluate the reversibility of fluorescence response to Zn^2+ in living cells according to methods described elsewhere. To determine the entry time of exogenous Zn^2+ into cells, NapBu-BPEA was incubated and an initial image was captured, after which 50 μM ZnPT (50 μM ZnCl2/100 μM pyrithione sodium salt) was used to replace the culture medium in dye-free and serum-free DMEM. […] The variance may be attributed to the difference in lipophilicity.
Next, NapBu-BPEA was investigated for its intracellular labile Zn^2+ imaging ability. Imaging experiments were performed in HeLa cells upon exogenous Zn^2+ loading via incubation with zinc pyrithione cmplex (ZnPT), a cell-permeable Zn^2+ carrier.
Intracellular labile Zn^2+ enhancement processes were tracked by recording SIM images every 2 min. […] While not desiring to be bound by theory, it is proposed that the butyl tail of NapBu-BPEA is responsible for the retained multiple organelle accumulation behavior of NapBu-BPEA upon Zn^2+ binding.

Data set [5] has as its system HeLa cells. The data set can be described thus: SIM imaging of labile Zn^2+ during CCCP- or EBSS-induced autophagy. Format: cell-based. From the text: The SIM images were acquired using a Nikon N-SIM system. The blue imaging channel for Hoechst 33258 with emission bandwidth at 420-495 nm upon excitation at 405 nm, the green imaging channel for NapBu-BPEA with emission bandwidth at 500-550 nm upon excitation at 488 nm, the red imaging channel for ER-Tracker Red, LysoTracker Red and DAPRed with emission bandwidth at 570-640 nm upon excitation at 561 nm, the magenta imaging channel for MitoTracker Deep Red with emission bandwidth at 660-735 nm upon excitation at 640 nm were utilized. The imaging data analysis and thermal map construction were performed via analysis with ImageJ.
The intracellular Zn^2+ level in autophagy was imaged in HeLa cells. Prior to CCCP (10 μM, 24 h) or EBSS treatment ([…]), the cells were stained with DAPRed (1 μM, 30 min). The cells were finally stained by NapBu-BPEA (10 μM, 1 h) before SIM imaging.

A short description of data set [6]: Spectroscopic study: fluorescence quantum yield and pH stability in DMSO/HEPES. Format: physicochemical. The following applies: probe bound to Zn^2+, pH titration. Here is the method: as §3, §4
The mark [7] stands for this setting: CCCP treatment, regions selected by morphology.

For the molecule `C[N+]1=C(/C=C/C=C/C=C2\N(Cc3ccc(CCl)cc3)c3ccccc3C2(C)C)C(C)(C)c2ccccc21.[Cl-]` [MTDR, reference compound], in the data set on HeLa cells [1] (after 120 s of laser stimulation), the fluorescence intensity remaining entry is reported as “less than 30%”.
In the case of `CCCCN1C(=O)c2cccc3c(NCCN(Cc4ccccn4)Cc4ccccn4)ccc(c23)C1=O` [NapBu-BPEA, 2,4-(bis(pyridin-2-ylmethyl)aminoethyl)amino-N-n-butyl-1,8-naphthalimide], the “fluorescence intensity, CCCP-treated versus untreated” value in the data set on ATG13 KO HeLa cells was “no significant change in fluorescence intensity”. For the same molecule, in the data set on FIP200 KO HeLa cells, the “fluorescence intensity, CCCP-treated versus untreated” value is on record as “no significant change in fluorescence intensity”. For the same molecule, the “limit of detection for Zn^2+” value in data set [2] (3 σ/slope method) came out at 54.5 nM. The “fluorescence selectivity against other metal ions” value in data set [2] (1000 eq K+, Na+, Ca2+, Mg2+, 1 eq other cations, response only to Cd^2+) is on record as “specific fluorescence selectivity for Zn^2+”. Besides, in data set [2] (HEPES 50 mM, 100 mM KNO3, 10% DMSO, 10 mM EGTA, pH 7.21, read-out: dissociation constant (Kd) of the complex between Zn^2+ and NapBu-BPEA), the Kd (in general, the concentration at which binding is half-saturated) stood at 4.98 nM. The “reversibility of fluorescence response on TPEN addition” value in data set [2] (Zn^2+ 10 μM then TPEN 10 μM, five on-off cycles) was “favorable reversible response to Zn^2+”. For the same molecule, in data set [2] (at 540 nm, 10 μM probe), the “emission enhancement on Zn^2+ titration” value amounted to 3.6 fold. Besides, in the data set with HeLa cells [3], the “activity of lactate dehydrogenase released into the medium” value is “less than 20%” and the cell viability result is “exceeded 80%”. Besides, the “time until fluorescence intensity is balanced/stable after exogenous Zn^2+” value with HeLa cells [4] (50 μM ZnPT, images every 2 min) is 6 min and 4 min. Moreover, in the data set with HeLa cells [4] (100 μM TPEN added to cells), the “reversibility of intracellular response” value is “respond reversibly to intracellular Zn^2+”. Also, the photobleaching result in the data set with HeLa cells [1] (within 300 s of laser stimulation) is recorded as “negligible photobleaching”. For the same molecule, the “green fluorescence intensity in mitophagic versus non-autophagic cells” value in the data set on HeLa cells [5] (CCCP 10 μM, 24 h, probe 10 μM, 1 h) is roughly 2.0 fold. In the data set on HeLa cells [5] (setting [7]), the “increase of Zn^2+ level (fluorescence intensity) in endoplasmic reticulum during autophagy” value was 1.55 fold and the “increase of Zn^2+ level (fluorescence intensity) in mitochondria during autophagy” value is on record as 1.89 fold. Further, the “fluorescence signal of CCCP-treated versus untreated cells” value with HeLa cells [5] (CCCP-induced mitophagy) is listed as “improved significantly”. Also, in the data set with HeLa cells [5] (EBSS starvation 24 h), the “fluorescence intensity of EBSS-treated cells” value is “decreased”. Moreover, the “pH range of stable fluorescence response” value in data set [6] is listed as 4-8 pH.
